Where two headings read alike, the source gives them in different places.
What was measured:
[1] = system: stage 3 Spodoptera litura larvae; experiment: Spodoptera litura larvae test; type: in vivo; settings: active compound concentration 500 ppm, sweet potato leaf dip, after 7 days, mean of two dishes
Description: Spodoptera litura Larvae Test
(§1) Solvent: 3 parts by weight of dimethylformamide Emulsifier: 1 part by weight of polyoxyethylene alkylphenyl ether
To prepare a suitable active compound, 1 part by weight of active compound is mixed with the stated amount of solvent comprising the stated amount of emulsifier, and the mixture is diluted with water to the specified concentration.
Sweet potato leaves are dipped into the sample solution diluted with water to the specified concentration and the leaves treated in this manner are, after the solution adhering to the leaves has dried in air, transferred into a laboratory dish which has a diameter of 9 cm and in which there are 10 stage 3 Spodoptera litura larvae. The dish is then placed in a temperature-controlled room at 25° C., sweet potato leaves are then added to the dish on day two and day four and the number of dead insects is determined after 7 days and used to calculate the insecticidal ratio.
The results are the means of two laboratory dishes per group in this test.

[2] = log P by HPLC on a reversed-phase column (C18), EEC Directive 79/831 Annex V.A8; type: physicochemical
Description: The stated log P values were determined in accordance with EEC Directive 79/831 Annex V.A8 by HPLC (High Performance Liquid Chromatography) using a reversed-phase column (C18).

[3] = system: stage 2 Aulacophora femoralis larvae; experiment: Aulacophora femoralis test (spray test); type: in vivo; settings: active compound concentration 500 ppm, cucumber leaf dip, after 7 days
Description: Aulacophora femoralis Test (Spray Test)
as §1
To prepare a suitable active compound formulation, 1 part by weight of the active compound is mixed with the stated amount of solvent comprising the stated amount of emulsifier, and the mixture is diluted with water to a specified concentration.
Cucumber leaves are dipped into a dilute aqueous solution of an active compound at the specified concentration prepared in the same manner as in the test described above, air-dried and transferred into a plastic dish with sterilized black soil. 5 stage 2 Aulacophora femoralis larvae are transferred into this dish. The dish is then placed into a temperature-controlled room at 25° C. After 7 days, the number of dead larvae is counted to calculate the mortality.

[4] = system: green peach aphid (Myzus persicae); experiment: Myzus persicae test (MYZUPE spray treatment); type: in vivo; settings: application rate 500 g/ha, Chinese cabbage leaf discs sprayed, after 6 days
Description: Myzus persicae Test (MYZUPE Spray Treatment)
(§2) Solvent: 78.0 parts by weight of acetone • • 1.5 parts by weight of dimethylformamide Emulsifier: 0.5 part by weight of alkylaryl polyglycol ether
(§3) To produce a suitable preparation of active compound, 1 part by weight of active compound is mixed with the stated amounts of solvent and emulsifier, and the concentrate is diluted with emulsifier-containing water to the desired concentration.
Discs of Chinese cabbage (Brassica pekinensis) infected by all stages of the green peach aphid (Myzus persicae) are sprayed with an active compound preparation of the desired concentration.
After 6 days, the effect in % is determined. 100% means that all of the aphids have been killed; 0% means that none of the aphids have been killed.

[5] = system: larvae of the mustard beetle (Phaedon cochleariae); experiment: Phaedon cochleariae test (PHAECO spray treatment); type: in vivo; settings: application rate 500 g/ha, Chinese cabbage leaf discs sprayed, after 7 days; for pest or weed control at 500 g/ha: Phaedon cochleariae, foliar, 168 h, read-out: effect in % (beetle larvae killed)
Description: Phaedon cochleariae Test (PHAECO Spray Treatment)
as §2, §3
Discs of Chinese cabbage (Brassica pekinensis) are sprayed with an active compound preparation of the desired concentration and, after drying, populated with larvae of the mustard beetle (Phaedon cochleariae).
After 7 days, the effect in % is determined. 100% means that all beetle larvae have been killed; 0% means that none of the beetle larvae have been killed.

[6] = system: caterpillars of the armyworm (Spodoptera frugiperda); experiment: Spodoptera frugiperda test (SPODFR spray treatment); type: in vivo; settings: application rate 500 g/ha, maize leaf discs sprayed, after 7 days
Description: Spodoptera frugiperda Test (SPODFR Spray Treatment)
as §2, §3
Discs of maize leaves (Zea mays) are sprayed with an active compound preparation of the desired concentration and, after drying, populated with caterpillars of the armyworm (Spodoptera frugiperda).
After 7 days, the effect in % is determined 100% means that all caterpillars have been killed; 0% means that none of the caterpillars have been killed.

[7] = HPLC, reversed-phase C18, mobile phase with formic acid
[8] = HPLC, reversed-phase C18, mobile phase with formic acid, read-out: log P (HCOOH)

With `CCOC(=O)c1ccc(-n2cc(-c3cc(Cl)cc(Cl)c3)c(C(F)(F)F)n2)cc1C(F)(F)F` [I-A-Q4-001, Ethyl 4-[4-(3,5-dichlorophenyl)-3-trifluoromethylpyrazol-1-yl]-2-trifluoromethylbenzoate] the “kill of the insect larvae” value [1] was 80%.

With `O=C(NCC(F)(F)F)c1ccc(-n2cc(-c3cc(Cl)cc(Cl)c3)c(C(F)(F)F)n2)cc1C(F)(F)F` [I-A-Q2-002, 4-[4-(3,5-Dichlorophenyl)-3-trifluoromethylpyrazol-1-yl]-N-(2,2,2-trifluoroethyl)-2-trifluoromethylbenzamide] the chromatographic logP ([2]; pH 2, read-out: log P (pH 2)) was 5.16, the chromatographic logP ([2]; pH 7.5, read-out: log P (pH 7.5)) was 5.14 and the “kill of the insects” value [3] was 100%. The “kill of the insect larvae” value [1] was 100%.

For `N#Cc1cc(-n2nc(C(F)(F)F)c(-c3cc(Cl)cc(Cl)c3)c2N)ccc1-n1cnc(S)n1` [I-A-Q1-089], the “effect in % (aphids killed)” value [4] was 90%, the “log P (HCOOH)” value [2, 7] was “I-A-Q1-089: log P (HCOOH): 3.53” and the “effect in % (beetle larvae killed)” value [5] was 83%.

In the case of `O=[N+]([O-])c1ccc(-n2cc(-c3cc(Cl)cc(Cl)c3)c(C(F)(F)F)n2)cc1C(F)(F)F` [I-A-Q4-006], the “kill of the insect larvae” value [1] is reported as 80%.

For `O=C(NCC(F)(F)F)c1ccc(-n2cc(-c3cc(C(F)(F)F)cc(C(F)(F)F)c3)c(C(F)(F)F)n2)cc1C(F)(F)F` [I-A-Q2-010], the “kill of the insects” value [3] was 100% and the “kill of the insect larvae” value [1] was 100%.

In the case of `CC(NC(=O)c1ccc(-n2cc(-c3cc(Cl)cc(Cl)c3)c(C(F)(F)F)n2)cc1C(F)(F)F)C(F)(F)F` (stereo not drawn) [I-A-Q2-005], the “kill of the insects” value [3] is reported as 100% and the “kill of the insect larvae” value [1] is reported as 100%.

For `CSc1cc(-n2nc(C(F)(F)F)c(-c3cc(Cl)cc(Cl)c3)c2N)ccc1C(=O)NCc1ccccn1` [I-A-Q2-409], the “effect in % (caterpillars killed)” value [6] was 83% and the “log P (HCOOH)” value ([2]; HCOOH) was “I-A-Q2-409: log P (HCOOH): 3.38”.

In the case of `O=C(NCc1ccccn1)c1ccc(-n2cc(-c3cc(Cl)cc(Cl)c3)c(C(F)(F)F)n2)cc1[N+](=O)[O-]` [I-A-Q2-003], the “kill of the insect larvae” value [1] is reported as 100%.

For `Cc1cc(-n2nc(C(F)(F)F)c(-c3ccc(Cl)cc3Cl)c2N)ccc1C(=O)NC(C)c1ccccn1` (stereo not drawn) [I-A-Q2-412], the “log P (HCOOH)” value ([2]; HCOOH) was “I-A-Q2-412: log P (HCOOH): 3.29” and the “effect in % (beetle larvae killed)” value [5] was 100%.

For `CCS(=O)(=O)c1ncn(-c2ccc(-n3nc(C(F)(F)F)c(-c4cc(Cl)cc(Cl)c4)c3N)cc2C#N)n1` [I-A-Q1-087], the “log P (HCOOH)” value [2, 7] was “I-A-Q1-087: log P (HCOOH): 3.78” and the “effect in % (beetle larvae killed)” value [5] was 100%.

For `Cc1cc(-n2nc(C(F)(F)F)c(-c3ccccc3Br)c2N)ccc1C(=O)NC(C)c1ccccn1` (stereo not drawn) [I-A-Q2-420], the “log P (HCOOH)” value ([2]; HCOOH) was “I-A-Q2-420: log P (HCOOH): 2.81” and the “effect in % (beetle larvae killed)” value [5] was 100%.

In the case of `Cc1cc(-n2nc(C(F)(F)F)c(-c3ccccc3Br)c2N)ccc1C(=O)NCc1ccccn1` [I-A-Q2-421], the “log P (HCOOH)” value ([2]; HCOOH) is reported as “I-A-Q2-421: log P (HCOOH): 2.53” and the “effect in % (beetle larvae killed)” value [5] is reported as 100%.

With `Cc1cc(-n2nc(C(F)(F)F)c(-c3cccc(Br)c3)c2N)ccc1C(=O)NCc1ncccn1` [I-A-Q2-417] the “log P (HCOOH)” value ([2]; HCOOH) was “I-A-Q2-417: log P (HCOOH): 3.13” and the “effect in % (beetle larvae killed)” value [5] was 100%.

With `CC(NC(=O)c1ccc(-n2cc(-c3cc(Cl)cc(Cl)c3)cn2)cc1C(F)(F)F)C(F)(F)F` (stereo not drawn) [I-A-Q2-006] the “kill of the insect larvae” value [1] was 100%.

In the case of `Cc1cc(-n2nc(C(F)(F)F)c(-c3cc(Cl)cc(Cl)c3)c2I)ccc1C(=O)NCc1ccccn1` [I-A-Q2-025, 4-[4-(3,5-Dichlorophenyl)-5-iodo-3-trifluoromethylpyrazol-1-yl]-2-methyl-N-pyridin-2-ylmethylbenzamide], the chromatographic logP [2, 8] is reported as 4.29 and the pest or weed control at 500 g/ha [5] is reported as > 80%.

In the case of `Cc1cc(-n2nc(C(F)(F)F)c(-c3cc(Cl)cc(Cl)c3)c2N)ccc1C(=O)NCc1ccccn1` [I-A-Q2-012, 4-[5-Amino-4-(3,5-dichlorophenyl)-3-trifluoromethylpyrazol-1-yl]-2-methyl-N-pyridin-2-ylmethylbenzamide], the chromatographic logP [2, 8] is reported as 3.35 and the pest or weed control at 500 g/ha [5] is reported as > 80%.

In the case of `CSc1c(-c2cc(Cl)cc(Cl)c2)c(C(F)(F)F)nn1-c1ccc(C(=O)NC(C)C(F)(F)F)c(C)c1` (stereo not drawn) [I-A-Q2-027, 4-[4-(3,5-Dichlorophenyl)-5-methylsulphanyl-3-trifluoromethylpyrazol-1-yl]-2-methyl-N-(2,2,2-trifluoro-1-methylethyl)benzamide], the chromatographic logP [2, 8] is reported as 5.48 and the pest or weed control at 500 g/ha [5] is reported as > 80%.

With `N#Cc1cc(-n2nc(C(F)(F)F)c(-c3cc(Cl)cc(Cl)c3)c2N)ccc1-n1cnc(Cl)n1` [I-A-Q1-091] the “effect in % (caterpillars killed)” value [6] was 100%, the “log P (HCOOH)” value [2, 7] was “I-A-Q1-091: log P (HCOOH): 4.17” and the “effect in % (beetle larvae killed)” value [5] was 100%.

In the case of `Cc1cc(-n2nc(C(F)(F)F)c(-c3ccccc3Br)c2N)ccc1C(=O)NCc1ncccn1` [I-A-Q2-419], the “log P (HCOOH)” value ([2]; HCOOH) is reported as “I-A-Q2-419: log P (HCOOH): 2.68” and the “effect in % (beetle larvae killed)” value [5] is reported as 100%.

In the case of `CC[S+]([O-])c1ccn(-c2ccc(-n3nc(C(F)(F)F)c(-c4cc(Cl)cc(Cl)c4)c3N)cc2C#N)n1` (stereo not drawn) [I-A-Q1-090], the “log P (HCOOH)” value [2, 7] is reported as “I-A-Q1-090: log P (HCOOH): 3.47” and the “effect in % (beetle larvae killed)” value [5] is reported as 100%.

For `N#Cc1cc(-n2nc(C(F)(F)F)c(-c3cc(Cl)cc(C(F)(F)F)c3)c2N)ccc1-n1cncn1` [I-A-Q1-001, 5-[5-Amino-4-(3-chloro-5-trifluoromethylphenyl)-3-trifluoromethylpyrazol-1-yl]-2-[1,2,4]triazol-1-ylbenzonitrile], the chromatographic logP [2, 8] was 3.92 and the pest or weed control at 500 g/ha [5] was > 80%.

For `O=C(NCc1ccccn1)c1ccc(-n2cc(-c3cc(Cl)cc(Cl)c3)c(C(F)(F)F)n2)cc1C(F)(F)F` [I-A-Q2-001], the “log P (pH 2)” value ([2]; pH 2) was “I-A-Q2-001: log P (pH 2): 4.02”, the “log P (pH 7.5)” value ([2]; pH 7.5) was “log P (pH 7.5): 4.74” and the “kill of the insect larvae” value [1] was 100%.
